Source: ChEMBL document CHEMBL1201862, “PubChem BioAssay data set” (2004)
Activity calls are given as the source filed them. For most assays here, no stated cut-off is given here; in the data, actives have a measured EC50 and inactives only a lower limit.

Columns and labels:
[1] = biological target: T1, Heat shock factor protein 1 (Mus musculus, UniProt P38532); test: decrease of HSF1-responsive luciferase luminescence – cell-based, NIH3T3, dose retest, confirmation (AID 2382); type: functional;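 further: NIH3T3 fibroblasts with HSF1-driven luciferase reporter stressed by proteasome inhibitor MG132; luminescence from HSF1-driven luciferase expression after 8 hours of MG132 stress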
T1 sequence (P38532 whole entry): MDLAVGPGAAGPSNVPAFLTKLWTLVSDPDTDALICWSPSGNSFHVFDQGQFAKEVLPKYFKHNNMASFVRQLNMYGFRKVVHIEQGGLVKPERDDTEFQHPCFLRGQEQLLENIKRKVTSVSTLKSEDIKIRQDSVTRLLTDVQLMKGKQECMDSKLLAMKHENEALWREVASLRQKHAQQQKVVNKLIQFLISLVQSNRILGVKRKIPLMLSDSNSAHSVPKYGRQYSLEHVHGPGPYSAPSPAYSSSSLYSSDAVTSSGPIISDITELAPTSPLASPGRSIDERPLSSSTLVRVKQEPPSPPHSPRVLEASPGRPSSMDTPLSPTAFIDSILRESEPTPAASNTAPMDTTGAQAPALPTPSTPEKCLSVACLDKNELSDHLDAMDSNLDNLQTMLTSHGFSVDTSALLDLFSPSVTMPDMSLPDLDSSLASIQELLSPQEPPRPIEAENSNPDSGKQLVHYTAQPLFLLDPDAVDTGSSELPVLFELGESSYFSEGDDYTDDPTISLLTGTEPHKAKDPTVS

[2] = biological target: T2, Corticotropin-releasing factor receptor 2/Corticotropin-releasing factor-binding protein (Homo sapiens, UniProt P24387+Q13324); test: Dose Response confirmation of uHTS hits for small molecule antagonists of the CRF-binding protein and CRF-R2 receptor complex.; type: functional; settings: read-out: IC50_Mean
T2 sequence (Q13324 whole entry): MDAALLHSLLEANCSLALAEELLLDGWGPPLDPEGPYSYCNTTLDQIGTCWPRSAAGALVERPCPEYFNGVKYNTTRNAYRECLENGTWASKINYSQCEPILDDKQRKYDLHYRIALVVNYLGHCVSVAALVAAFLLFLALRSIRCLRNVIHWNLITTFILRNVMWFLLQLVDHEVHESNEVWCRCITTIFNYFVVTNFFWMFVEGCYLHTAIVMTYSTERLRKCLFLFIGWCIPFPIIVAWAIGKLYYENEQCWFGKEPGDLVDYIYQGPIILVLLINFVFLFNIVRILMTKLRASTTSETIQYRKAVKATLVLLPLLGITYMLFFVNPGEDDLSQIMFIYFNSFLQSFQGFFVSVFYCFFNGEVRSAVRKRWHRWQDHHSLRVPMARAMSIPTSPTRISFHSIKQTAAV
T2 sequence (P24387 whole entry): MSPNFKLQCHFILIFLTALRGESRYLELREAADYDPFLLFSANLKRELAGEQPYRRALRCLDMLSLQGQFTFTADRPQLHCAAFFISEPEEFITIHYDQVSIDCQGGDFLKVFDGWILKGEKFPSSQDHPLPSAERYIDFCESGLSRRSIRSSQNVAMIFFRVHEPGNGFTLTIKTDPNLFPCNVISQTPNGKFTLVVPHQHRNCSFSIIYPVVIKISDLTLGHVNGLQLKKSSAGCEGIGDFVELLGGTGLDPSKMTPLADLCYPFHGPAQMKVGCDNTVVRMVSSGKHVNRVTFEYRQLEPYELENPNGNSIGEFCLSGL

[3] = biological target: T2, Corticotropin-releasing factor receptor 2/Corticotropin-releasing factor-binding protein; test: activators of CRF receptor 2 with binding protein – uHTS hits, confirmation (AID 602473); type: functional; settings: read-out: EC50_Mean
Streptococcus = test: GAS UMAA2166 growth inhibition – luminescence, BacTiterGlo, counter-screen for streptokinase expression inhibitor project, dose response (AID 1915); type: functional, organism-based;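 further: potency for reduction of bacterial viability or growth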
[4] = luciferase reporter signal suppression in cells – H4 neuroglioma cells, luminescence, dose response (AID 1990); type: functional, cell-based
[5] = Luminescence Cell-Based Dose Response HTS to Identify Inhibitors of 5'UTR Stem-Loop Driven Prion Protein mRNA Translation in H4 Neuroglioblastoma Cells. [Related pubchem assays: 1827 (Project Summary), 1813 (Primary HTS)]; type: functional
[6] = test system: Streptococcus sp. 'group A'; test: Streptococcus pyogenes SK(-)GAS viability under kanamycin – luminescence, BacTiterGlo, confirmation, counter-screen for streptokinase expression inhibitor project, dose response (AID 1900); type: functional, organism-based
[7] = alpha-synuclein stem-loop luciferase translation blockers – H4 neuroglioma cells, luminescence, confirmation (AID 1988); type: functional, cell-based
BJ [8] = test: BJ-TERT fibroblast viability loss – cell-based, RAS-independent, luminescence, dose response (AID 1933); type: functional; settings: Homo sapiens
BJ [9] = test: BJ-TERT-LT-ST fibroblast viability loss – cell-based, RAS-independent, luminescence, dose response (AID 1935); type: functional; settings: Homo sapiens;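 further: BJ fibroblasts immortalized with TERT plus LT and ST oncogenes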
[10] = DRD fibroblast viability loss – cell-based, non-viral oncogenic, luminescence, dose response (AID 1934); type: functional; settings: Homo sapiens
BJ [11] = test: cells; type: functional, cell-based; settings: Homo sapiens
Cytochrome P450 1A2 = biological target: T3, Cytochrome P450 1A2 (Homo sapiens, UniProt P05177);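 further: PubChem cytochrome P450 panel assay, CYP1A2 panel member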
T3 sequence (P05177 whole entry): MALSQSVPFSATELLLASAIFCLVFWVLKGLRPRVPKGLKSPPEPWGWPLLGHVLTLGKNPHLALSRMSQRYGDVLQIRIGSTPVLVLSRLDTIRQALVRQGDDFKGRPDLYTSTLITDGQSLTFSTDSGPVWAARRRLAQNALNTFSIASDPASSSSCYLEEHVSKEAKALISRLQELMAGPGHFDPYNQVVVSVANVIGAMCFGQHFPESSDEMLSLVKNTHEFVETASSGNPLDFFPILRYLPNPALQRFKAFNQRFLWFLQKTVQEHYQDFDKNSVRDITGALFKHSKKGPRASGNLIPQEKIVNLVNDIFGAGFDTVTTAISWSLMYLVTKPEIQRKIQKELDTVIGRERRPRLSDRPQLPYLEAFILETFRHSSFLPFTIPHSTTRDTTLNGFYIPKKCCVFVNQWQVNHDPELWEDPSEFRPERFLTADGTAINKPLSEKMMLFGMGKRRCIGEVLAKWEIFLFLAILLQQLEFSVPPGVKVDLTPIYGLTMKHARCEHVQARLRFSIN

[12] = biological target: T4, Calpain-2 catalytic subunit (Sus scrofa, UniProt P43367); test: m-calpain protease blockers, concentration series – biochemical, fluorogenic peptide substrate, dose response (AID 1420); type: functional
T4 sequence (P43367 whole entry): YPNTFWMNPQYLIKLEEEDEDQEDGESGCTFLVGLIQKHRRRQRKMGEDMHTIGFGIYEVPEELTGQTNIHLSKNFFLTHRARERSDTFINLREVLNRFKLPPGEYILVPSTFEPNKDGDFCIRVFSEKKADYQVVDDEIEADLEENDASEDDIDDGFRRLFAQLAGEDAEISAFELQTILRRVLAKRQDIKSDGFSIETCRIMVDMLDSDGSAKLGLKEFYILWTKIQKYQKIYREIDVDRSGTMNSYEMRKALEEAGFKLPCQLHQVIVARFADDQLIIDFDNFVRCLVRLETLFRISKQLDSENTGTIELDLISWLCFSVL

Cytochrome P450 3A4 = Cytochrome P450 3A4 (Homo sapiens, UniProt P08684);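 further: CYP3A4 tested as one member of a cytochrome P450 panel screen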
[13] = Trypanosoma cruzi growth suppression in host cells – NIH3T3 host cells, beta-gal luminescence, confirmation (AID 2044); type: functional, cell-based;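 further: intracellular parasites grown in NIH/3T3 mouse fibroblasts as host cells; luminescent beta-galactosidase reporter signal from transgenic T. cruzi replicating inside host cells; inhibitors lower the luminescence signal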
[14] = NIH3T3 cell viability loss – ATP luminescence, mouse fibroblasts, counter-screen, dose response (AID 2010); type: functional, cell-based;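 further: cells exposed to compound for about 90 hours before reading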
[15] = biological target: T1, Heat shock factor protein 1; test: enhancement of HSF1-driven luciferase signal – cell-based, NIH3T3, luminescence, dose retest, confirmation (AID 435004); type: functional;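 further: stress induced by proteasome inhibitor MG132 added 30 min after compound; luciferase reporter driven by HSF1 response element in NIH3T3 cells; actives raise luminescence as potentiators of the MG132 stress response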

Cytochrome P450 3A4, sequence (P08684 whole entry): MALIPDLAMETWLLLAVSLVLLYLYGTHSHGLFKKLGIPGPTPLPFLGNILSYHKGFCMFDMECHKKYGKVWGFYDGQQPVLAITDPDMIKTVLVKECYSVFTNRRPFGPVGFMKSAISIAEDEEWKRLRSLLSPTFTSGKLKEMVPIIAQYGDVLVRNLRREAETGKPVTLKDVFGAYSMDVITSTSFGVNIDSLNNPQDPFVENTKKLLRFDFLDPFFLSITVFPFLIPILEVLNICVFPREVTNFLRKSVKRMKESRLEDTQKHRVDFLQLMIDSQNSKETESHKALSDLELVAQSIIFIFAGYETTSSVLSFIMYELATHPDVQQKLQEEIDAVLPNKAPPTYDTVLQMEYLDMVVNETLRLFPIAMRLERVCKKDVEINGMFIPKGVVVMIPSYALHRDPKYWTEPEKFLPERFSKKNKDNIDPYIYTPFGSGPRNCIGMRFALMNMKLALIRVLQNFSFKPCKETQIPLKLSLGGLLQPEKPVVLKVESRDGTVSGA

SMILES: CC1(C)C=C(c2ccc(C=O)s2)CC(C)(C)N1C=O
- EC50 [1]: > 195 µM (not active)

SMILES: CCCC1(CCC)NC(=O)N(CC(=O)Nc2ccc(Cl)c(S(=O)(=O)N3CCOCC3)c2)C1=O
- IC50 [2]: > 47.1 µM (inactive)
- EC50 [3]: > 53 µM (inactive)

SMILES: CCCCN(CC)S(=O)(=O)c1ccc(C(=O)Nc2nnc(-c3ccccc3Cl)o2)cc1
- EC50 (Streptococcus): 0.737 µM (active)
- EC50 [4]: 11.9 µM (active)
- EC50 [5]: 12.1 µM (active)
- EC50 [6]: 0.2 µM (active)
- EC50 [7]: 10 µM (active)

SMILES: O=C(N/N=C/c1ccccc1O)c1cccc2ccccc12
- EC50 (Streptococcus): 6.12 µM (active)
- EC50 [4]: 2.12 µM (active)
- EC50 [5]: 17.1 µM (active)
- EC50 [6]: 1.58 µM (active)
- EC50 [7]: 6.71 µM (active)

SMILES: CC(O)c1nc2ccccc2n1Cc1nnc(-c2ccc(Cl)cc2)o1 (stereo not drawn)
- EC50 [1]: > 195 µM (not active)

SMILES: O=C(COC(=O)CC1c2ccccc2CCN1S(=O)(=O)c1ccc(F)cc1)Nc1ccccc1 (stereo not drawn)
- IC50 [2]: > 47.1 µM (inactive)
- EC50 [3]: > 53 µM (inactive)

SMILES: CC/N=C1\S/C(=C\c2ccc(Sc3ccc(Cl)cc3)o2)C(=O)N1CC
- EC50 [4]: 21.4 µM (active)
- EC50 [5]: > 120 µM (not active)
- EC50 [7]: > 120 µM (not active)

SMILES: CCOc1ccc(NC(=O)CN(C)C(=O)c2ccc(N3CCCC3)c([N+](=O)[O-])c2)cc1OCC
- EC50 [1]: > 195 µM (not active)

SMILES: Cc1cc(N2CCN(Cc3cn(C)nc3-c3cccc(Cl)c3)CC2)cc(C)n1
- EC50 (BJ [8]): 11.3 µM (active)
- EC50 (BJ [9]): > 150 µM (inconclusive)
- EC50 [4]: 10.4 µM (active)
- EC50 [10]: 11.8 µM (active)
- EC50 (BJ [11]): 18.7 µM (active)
- EC50 [5]: 8.87 µM (active)
- EC50 [7]: 10.6 µM (active)

SMILES: Cc1[nH]n(-c2ccccc2)c(=O)c1N=Nc1ccc2c(c1)OCO2
- EC50 [1]: > 195 µM (not active)

SMILES: C/C=C/Cn1c(Br)nc2c1c(=O)n(C)c(=O)n2C
- EC50 [4]: > 120 µM (not active)
- EC50 [5]: > 120 µM (not active)
- EC50 [7]: 59.3 µM (active)

SMILES: CC(C)CC(=O)NC(NC(=O)CC(C)C)c1cccc([N+](=O)[O-])c1
- EC50 [1]: > 195 µM (not active)

SMILES: CCCCc1nnc2c(N(C)S(=O)(=O)c3ccccc3)nc3ccccc3n12
- IC50 [2]: > 47.1 µM (inactive)
- EC50 [3]: > 53 µM (inactive)

SMILES: C#CCSc1nnc(-c2sc3ccccc3c2Cl)o1
- AC50 (Cytochrome P450 1A2): 0.126 µM (inconclusive)
- IC50 [12]: > 50 µM (not active)
- AC50 (Cytochrome P450 3A4): 8.91 µM (inconclusive)

SMILES: COC(=O)Nc1sccc1C(=O)Nc1sccc1C(=O)OC
- EC50 [1]: > 195 µM (not active)

SMILES: Cc1ccc2c(N)c(C(=O)N(c3ccccc3)c3ccccc3)sc2n1
- EC50 [13]: 1.3 µM (active)
- EC50 [14]: > 60 µM (not active)
- EC50 [1]: > 195 µM (not active)

SMILES: COc1ccc(NC(=O)c2cc(C(=O)Nc3ccc(OC)cc3OC)cc([N+](=O)[O-])c2)c(OC)c1
- IC50 [2]: > 47.1 µM (inactive)
- EC50 [3]: > 53 µM (inactive)

SMILES: O=C(NCCc1ccccn1)c1ccc(OC(F)F)cc1
- IC50 [12]: < 0.4 µM (not active)

SMILES: O=C(c1ccc2c(=O)n3c(nc2c1)CCCCC3)N1CCN(C(c2ccccc2)c2ccccc2)CC1
- EC50 [4]: 12.7 µM (active)
- EC50 [15]: > 260 µM (inactive)
- EC50 [5]: 28.3 µM (active)
- EC50 [7]: 24.1 µM (active)

SMILES: Cc1ccc(NS(=O)(=O)c2cc(C(=O)NCCSC3CCCCC3)ccc2C)cc1
- IC50 [12]: > 50 µM (not active)

SMILES: COc1ccc(-c2noc(N3CCC(C(=O)NCCCN4CC(C)CC(C)C4)CC3)n2)cc1 (stereo not drawn)
- EC50 [1]: > 195 µM (not active)

SMILES: COc1ccc(S(=O)(=O)NNC(=O)c2csc(-n3nc(C)cc3C(F)(F)F)n2)cc1
- IC50 [2]: > 47.1 µM (inactive)
- EC50 [3]: > 53 µM (inactive)

SMILES: Fc1ccc(Cc2nnc(-c3cccs3)o2)cc1
- EC50 [1]: > 195 µM (not active)

SMILES: O=C(c1ccc(Br)cc1)N1CCN(c2ncccn2)CC1
- IC50 [2]: > 47.1 µM (inactive)
- EC50 [3]: > 53 µM (inactive)

SMILES: S=C(Nc1ccccc1Oc1ccccc1)Nc1cccc(Cl)c1Cl
- IC50 [12]: 12.7 µM (not active)

SMILES: COc1ccc(CN(Cc2cc3cc4c(cc3nc2O)OCO4)C(=O)NC2CCCCC2)cc1
- EC50 [4]: 17.8 µM (active)
- EC50 [5]: > 120 µM (not active)
- EC50 [7]: > 120 µM (not active)

SMILES: CCOC(=O)c1c(C)[nH]c(C2=NN=C(Nc3cccc(Cl)c3)SC2)c1C
- EC50 [1]: 25.3 µM (active)

SMILES: CC(=O)Nc1ccc(NC(=O)CN(c2ccc(C(C)C)cc2)S(=O)(=O)c2ccccc2)cc1
- EC50 [4]: > 120 µM (not active)
- EC50 [5]: > 120 µM (not active)
- EC50 [7]: > 120 µM (not active)

SMILES: CC(C)(C)OC(=O)C1C(=O)CC(C)(O)C(C(=O)OC(C)(C)C)C1c1cccnc1 (stereo not drawn)
- EC50 [1]: > 195 µM (not active)

SMILES: CCn1ncc(C(=O)Nc2ccc([N+](=O)[O-])cc2OC)c1C
- IC50 [2]: > 47.1 µM (inactive)
- EC50 [3]: > 53 µM (inactive)

SMILES: Cc1nn(C(C)C(=O)O)c(=O)c2ccccc12 (stereo not drawn)
- IC50 [2]: > 47.1 µM (inactive)
- EC50 [3]: > 53 µM (inactive)
